Experimental data as given in ChEMBL document CHEMBL1126493, “Conformationally constrained analogues of diacylglycerol (DAG). 4. Interaction of -alkylidene--lactones with protein kinase C (PK-C)” (Bioorg Med Chem Lett, 1993).
pKi: −log10 of the molar value.

Tests used:
[1] = molecular target: Protein kinase C, PKC; classical/novel; assay: Inhibition of [20-3H]phorbol-12,13-dibutyrate (PDBU) binding to protein kinase C; format: protein assay
[2] = molecular target: Protein kinase C alpha type (Homo sapiens, UniProt P17252); assay: Inhibition of [20-3H]phorbol-12,13-dibutyrate (PDBU) binding to protein kinase C (alpha)

Row | Structure (SMILES) | Ki [1] [nM] | pKi [2]
1 | CCCCCCCCCCCCCC[C@H]1C(=O)O[C@@H](CO)[C@@H]1OC(C)=O | 600 | 6.30
2 | CCCCCCCCCCCCCC[C@@H]1C(=O)O[C@@H](CO)[C@@H]1OC(C)=O | – | 6.22
